In patent publication US11478496B2, “Treatments of prostate cancer” (THE FLORIDA INTERNATIONAL UNIVERSITY BOARD OF TRUSTEES, priority 2020, dated 2022):

Assays:
RWPE1 cells = test: RTCA impedance proliferation assay, RWPE1; type: cell-based; conditions: 10 μM; serum free medium
Description: (6A-6B) PNT1A cells were plated onto xCelligence E-plates at 5×10^4 cells per well in media supplemented with 10% FBS (6A) or CSS (6B). Cells were allowed to attach overnight and treated with vehicle (DMSO) or 10 μM of indicated compounds. Cellular impedance was monitored continuously with 30 min intervals. (6C) RWPE1 cells were plated at 5×10^4 cells per well in serum free medium supplemented with Epidermal Growth Factor (EGF) and Bovine Pituitary Extract ([…]) onto E-plates and treated with 10 μM of indicated compounds as indicated. […] Proliferation assays were done using Roche DP Real Time Cell Analyzer (RTCA), as described by the manufacturer. Background impedance was established after incubating E-plates (Acea Biosciences, San Diego, Calif.) with 50 μL media at room temperature for 30 min and placed in RTCA. Cells were then seeded in 100 μL per well. Cells attached overnight and then treated. During attachment stage and after treatment impedance was measured every 30 min. Impedance is represented by cell index and is calculated as follows: CI=(Zi−Zo)/15Ω where Zi is impedance at an individual time point, and Zo is the background impedance. Average CI was calculated from four wells per treatment at each time point and normalized to the impedance immediately after compound addition.

LNCaP cells = test: Cell Titer Glo cell viability assay, LNCaP; type: cell-based; conditions: 10 μM; androgen depleted conditions (CSS); 24 and 48 h
Description: FIGS. 3A-3B show cellular toxicity of the lead compounds in androgen-dependent prostate cancer cell lines. (3A) LNCaP cells were plated in a 96-well plate at 1×10^4 cells/well in the presence of Fetal Bovine Serum (FBS) or Charcoal stripped Serum (CSS). Cells were allowed to attach overnight and were treated with either vehicle (DMSO) or 10 μM of indicated compound. At 24 and 48 h cellular viability was compared using the Cell Titer Glo Luminescent Cell Viability kit. (3B) LAPC4 cells were plated in a 96-well plate at a density of 1×10^4 cells/well in the presence of FBS or CSS. Cells were allowed to attach overnight and treated with 10 μM of indicated compound.
Cell viability was determined using the Cell Titer Glo Cell Viability Assay (Promega, Madison, Wis.), as recommended by manufacturer. All experiments were performed in quadruplicate.

FEN1 = FEN1 (Homo sapiens, UniProt P39748); test: FEN1 activity; type: biochemical
Sequence of FEN1 (P39748 whole entry): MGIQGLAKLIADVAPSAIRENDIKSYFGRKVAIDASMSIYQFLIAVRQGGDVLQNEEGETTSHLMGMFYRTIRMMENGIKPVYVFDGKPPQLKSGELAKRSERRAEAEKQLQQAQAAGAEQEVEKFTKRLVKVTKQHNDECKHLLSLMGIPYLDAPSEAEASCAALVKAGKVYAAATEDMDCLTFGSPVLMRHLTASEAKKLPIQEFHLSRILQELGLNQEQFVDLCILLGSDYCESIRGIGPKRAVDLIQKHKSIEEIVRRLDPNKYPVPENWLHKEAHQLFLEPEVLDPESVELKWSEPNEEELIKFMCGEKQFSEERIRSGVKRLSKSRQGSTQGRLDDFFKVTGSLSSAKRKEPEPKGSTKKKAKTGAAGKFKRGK
Description: 10 μM hit compounds were incubated with 10 nM pol β, 10 nM FEN1 and 20 nM LIG I in BER reaction buffer containing 50 mM Tris-HCl (pH 7.5), 50 mM KCl, 0.1 mM EDTA, 0.1 mg/ml bovine serum albumin, and 0.01% Nonidet P-40 in the presence of 5 mM Mg^2+ and 2 mM ATP. The compounds were initially preincubated with a BER enzyme at varying concentrations for 1 h with rotation. This was followed by the addition of 25 nM ^32P-labeled substrate containing an abasic site, which was precut with 25 or 50 nM APEI. The reaction mixture (20 μL) was incubated at 37° C. for 30 min, and the reaction was terminated by 50 mM EDTA. Substrates, products, and unrepaired BER intermediates were separated by 15% urea-denaturing sequencing gel and detected by a Pharos FX Plus PhosphorImager (Bio-Rad, Hercules, Calif.).

C[C@@H]1C/C=C/C=C/C=C/C=C/[C@H](O[C@@H]2O[C@H](C)[C@@H](O)[C@H](N)[C@@H]2O)C[C@@H]2O[C@](O)(C[C@@H](O)C[C@H]3O[C@@H]3/C=C/C(=O)O1)C[C@H](O)[C@H]2C(=O)O [natamycin]
RWPE1 proliferation (RWPE1 cells): slightly inhibited
toxicity (cell viability) in LNCaP (LNCaP cells): highest toxicity
inhibitory effect on FEN1 (FEN1): No inhibitory effect
